In patent US9302999B2, “Substituted triazoles as herbicides” (E. I. DU PONT DE NEMOURS AND COMPANY, priority 2012, dated 2016):

Legend:
Format in all cases: in vivo
[1] = system: smartweed (ladysthumb smartweed, Polygonum persicaria); assay: Test F pre-/postemergence: smartweed
Text: Seeds of plant species selected from corn (Zea mays), soybean (Glycine max), velvetleaf (Abutilon theophrasti), lambsquarters (Chenopodium album), poinsettia, wild (wild poinsettia, Euphorbia heterophylla), pigweed, palmer (palmer pigweed, Amaranthus palmeri), waterhemp (common waterhemp, Amaranthus rudis), surinam grass (Brachiaria decumbens), crabgrass, Brazil (Brazilian crabgrass, Digitaria horizontalis), panicum, fall (fall panicum Panicum dichotomiflorum), crabgrass, large (large crabgrass, Digitaria sanguinalis), foxtail, giant (giant foxtail, Setaria faberii), foxtail, green (green foxtail Setaria viridis), goosegrass (Eleusine indica), ragweed (common ragweed, Ambrosia elatior), barnyardgrass (Echinochloa crus-galli), sandbur (southern sandbur, Cenchrus echinatus), arrowleaf sida (Sida rhombifolia), ryegrass, Italian (Italian ryegrass, Lolium multiflorum), dayflower, VA (Virginia (VA) dayflower, Commelina virginica), field bindweed (Convolvulus arvensis), cocklebur (common cocklebur, Xanthium strumarium), morningglory (Ipomoea coccinea), nightshade (eastern black nightshade, Solanum ptycanthum), kochia (Kochia scoparia), nutsedge, yellow (yellow nutsedge, Cyperus esculentus), johnsongrass (Sorghum halepense), smartweed (ladysthumb smartweed, Polygonum persicaria), and beggarticks (hairy beggarticks, Bidens pilosa), were planted into a silt loam soil and treated preemergence with test chemicals formulated in a non-phytotoxic solvent mixture which included a surfactant. At the same time, plants selected from these crop and weed species and also pigweed (Amaranthus retroflexus), waterhemp_RES1 (ALS/Triazine resistant common waterhemp, Amaranthus rudis) and waterhemp_RES2 (ALS/HPPD resistant common waterhemp, Amaranthus rudis) were planted in pots containing a planting medium comprising spaghnum peat moss, vermiculite, wetting agent and starter nutrients treated with postemergence applications of some of the test chemicals formulated in the same manner. Plants ranged in height from 2 to 18 cm for postemergence treatments (1- to 4-leaf stage).
(§1) Treated plants and controls were maintained in a greenhouse for 14 to 21 days, after which time all species were compared to controls and visually evaluated. Plant response ratings, summarized in Table E, are based on a scale of 0 to 100 where 0 is no effect and 100 is complete control. A dash (-) response means no test result.

[2] = system: wheat (TRZAW, Triticum aestivum); assay: Test H post-emergence, alone and in combination: wheat
Text: (§2) Seeds of plant species selected from wheat (TRZAW, Triticum aestivum), barley (HORBW, Hordeum vulgare), Kochia (KCHSC, Kochia caoparia) blackgrass (ALOMY, Alopecurus myosuroides), canarygrass (PHAMI, Phalaris minor), Italian ryegrass (LOLMU, Lolium multiflorum) common lambsquarter (CHEAL, Chenopodium album), pigweed (AMARE, Amaranthus retroflexus), Common Chickweed (STEME, Stellaria media), Russian thistle (SASKR, Salsola iberica), Wild Buckwheat (POLCO, Polygonum convolvulus), Catchweed Bedstraw (GALAP, Galium aparine), Mustard (SINAR, Sinapisar arvensis), Henbit Deadnettle (LAMAM, Lamium amplexicaule), Wild Radish (RAPRA, Raphanus raphanistrum), Field Poppy (PAPRH, Papaver rhoeas), Field Violet (VIOAR, Viola arvennsis), Scentless Chamomile (MATIN Matricaria inodora) were planted into soil and treated post-emergence with test chemicals formulated in a non-phytotoxic solvent mixture. Plants were grown in a greenhouse using supplemental lighting to maintain a photoperiod of approximately 14 hours; daytime and nighttime temperatures were approximately 23°-29° and 16°-19° Celsius, respectively. Balanced fertilizer was applied through the watering system. Treated plants and controls were maintained in a greenhouse for 20 days, after which time all species were compared to controls and visually evaluated. Plant response ratings were calculated as the mean of three replicates (unless otherwise indicated), are summarized in Table G, and are based on a scale of 0 to 100 where 0 is no effect and 100 is complete control. A dash (-) response means no test result.

[3] = system: Kochia (KCHSC, Kochia caoparia); assay: Test H post-emergence, alone and in combination: Kochia
Text: as §2

[4] = system: Russian thistle (SASKR, Salsola iberica); assay: Test H post-emergence, alone and in combination: Russian thistle
Text: as §2

[5] = system: Catchweed Bedstraw (GALAP, Galium aparine); assay: Test H post-emergence, alone and in combination: Catchweed Bedstraw
Text: as §2

[6] = system: Mustard (SINAR, Sinapisar arvensis); assay: Test H post-emergence, alone and in combination: Mustard
Text: as §2

[7] = system: Field Poppy (PAPRH, Papaver rhoeas); assay: Test H post-emergence, alone and in combination: Field Poppy
Text: as §2

[8] = system: Field Violet (VIOAR, Viola arvennsis); assay: Test H post-emergence, alone and in combination: Field Violet
Text: as §2

[9] = system: smartweed (ladysthumb smartweed, Polygonum persicaria); assay: Test E pre-/postemergence: smartweed; conditions: Postemergence, scale 0 to 100
Text: Seeds of plant species selected from corn (Zea mays), soybean (Glycine max), velvetleaf (Abutilon theophrasti), lambsquarters (Chenopodium album), poinsettia, wild (wild poinsettia, Euphorbia heterophylla), pigweed, palmer (palmer pigweed, Amaranthus palmeri), waterhemp (common waterhemp, Amaranthus rudis), smartweed (ladysthumb smartweed, Polygonum persicaria), surinam grass (Brachiaria decumbens), crabgrass, large (large crabgrass, Digitaria sanguinalis), crabgrass, Brazil (Brazilian crabgrass, Digitaria horizontalis), panicum, fall (fall panicum, Panicum dichotomiflorum), foxtail, giant (giant foxtail, Setaria faberii), foxtail, green (green foxtail, Setaria viridis), goosegrass (Eleusine indica), johnsongrass (Sorghum halepense), ragweed (common ragweed, Ambrosia elation), barnyardgrass (Echinochloa crus-galli), sandbur (southern sandbur, Cenchrus echinatus), arrowleaf sida (Sida rhombifolia), ryegrass, Italian (Italian ryegrass, Lolium multiflorum), dayflower, (VA) (Virginia dayflower, Commelina virginica), field bindweed (Convolvulus arvensis), cocklebur (common cocklebur, Xanthium strumarium), morningglory (Ipomoea coccinea), nightshade (eastern black nightshade, Solanum ptycanthum), kochia (Kochia scoparia), nutsedge, yellow (yellow nutsedge, Cyperus esculentus) and beggarticks (hairy beggarticks, Bidens pilosa) were planted into a silt loam soil and treated preemergence with test chemicals formulated in a non-phytotoxic solvent mixture which included a surfactant. At the same time, plants selected from these crop and weed species were planted in pots containing a growing medium comprising spaghnum peat moss, vermiculite, wetting agent and starter nutrients and treated with postemergence applications of some of the test chemicals formulated in the same manner. Plants ranged in height from 2 to 18 cm for postemergence treatments (1- to 4-leaf stage).
as §1

Cc1nn(-c2ccc(C(F)(F)F)c(F)c2)nc1Cc1ccnc(C(F)(F)F)c1 [Compound 162]
Plant response rating, Smartweed ([1]; Postemergence, 4 g ai/ha, scale 0 to 100): 10
Plant response rating, Smartweed ([1]; Postemergence, 8 g ai/ha, scale 0 to 100): 10
Plant response rating, Smartweed ([1]; Postemergence, 16 g ai/ha, scale 0 to 100): 10
Plant response rating, Smartweed ([1]; Postemergence, 31 g ai/ha, scale 0 to 100): 15
Plant response rating, Smartweed ([1]; Postemergence, 62 g ai/ha, scale 0 to 100): 15
Plant response rating, Smartweed ([1]; Preemergence, 4 g ai/ha, scale 0 to 100, 0 no effect, 100 complete control): 0
Plant response rating, Smartweed ([1]; Preemergence, 8 g ai/ha, scale 0 to 100, 0 no effect, 100 complete control): 0
Plant response rating, Smartweed ([1]; Preemergence, 16 g ai/ha, scale 0 to 100 (0 no effect, 100 complete control)): 0
Plant response rating, Smartweed ([1]; Preemergence, 31 g ai/ha, scale 0 to 100 (0 no effect, 100 complete control)): 0

Cc1nn(-c2ccc(F)cc2)nc1Oc1ccnc(C(F)(F)F)c1 [Compound 129, 4-[[2-(4-fluorophenyl)-5-methyl-2H-1,2,3-triazol-4-yl]oxy]-2-(trifluoromethyl)pyridine]
TRZAW plant response ([2]; Rate 31): 10
TRZAW plant response ([2]; Rate 62): 15
TRZAW plant response ([2]; Rate 125): 15
KCHSC plant response ([3]; Rate 31): 80
KCHSC plant response ([3]; Rate 62): 85
KCHSC plant response ([3]; Rate 125): 95
SASKR plant response ([4]; Rate 31): 65
SASKR plant response ([4]; Rate 62): 80
SASKR plant response ([4]; Rate 125): 90
GALAP plant response ([5]; Rate 31): 65
GALAP plant response ([5]; Rate 62): 60
GALAP plant response ([5]; Rate 125): 70
SINAR plant response ([6]; Rate 31): 80
SINAR plant response ([6]; Rate 62): 95
SINAR plant response ([6]; Rate 125): 95
PAPRH plant response ([7]; Rate 31): 85
PAPRH plant response ([7]; Rate 62): 90
PAPRH plant response ([7]; Rate 125): 90
VIOAR plant response ([8]; Rate 31): 60
VIOAR plant response ([8]; Rate 62): 75
VIOAR plant response ([8]; Rate 125): 90

Cc1nn(-c2ccc(C(F)(F)F)cc2)nc1Cc1ccnc(C(F)(F)F)c1 [Compound 47, 4-[[5-methyl-2-[4-(trifluoromethyl)phenyl]-2H-1,2,3-triazol-4-yl]methyl]-2-(trifluoromethyl)pyridine]
Plant response rating: Smartweed ([9]; 250 g ai/ha): 85
Plant response rating: Smartweed ([9]; 16 g ai/ha): 30
Plant response rating: Smartweed ([9]; 31 g ai/ha): 40
Plant response rating: Smartweed ([9]; 62 g ai/ha): 50
Plant response rating: Smartweed ([9]; 125 g ai/ha): 80
